{"source": "patent US9963466B2", "about": "“Substituted 5-membered heterocyclic analogs as protease activated receptor 4 (PAR-4) antagonists” (Vanderbilt University, priority 2016, dated 2018)", "key": {"PAR4 [1]": {"target": "T1, PAR4 (Homo sapiens, UniProt Q96RI0)", "T1 construct": "60 μL of washed platelets (Tyrodes buffer containing 0.1% BSA); endogenous in cells; host or cells: washed platelets", "T1 sequence (Q96RI0 18-385)": "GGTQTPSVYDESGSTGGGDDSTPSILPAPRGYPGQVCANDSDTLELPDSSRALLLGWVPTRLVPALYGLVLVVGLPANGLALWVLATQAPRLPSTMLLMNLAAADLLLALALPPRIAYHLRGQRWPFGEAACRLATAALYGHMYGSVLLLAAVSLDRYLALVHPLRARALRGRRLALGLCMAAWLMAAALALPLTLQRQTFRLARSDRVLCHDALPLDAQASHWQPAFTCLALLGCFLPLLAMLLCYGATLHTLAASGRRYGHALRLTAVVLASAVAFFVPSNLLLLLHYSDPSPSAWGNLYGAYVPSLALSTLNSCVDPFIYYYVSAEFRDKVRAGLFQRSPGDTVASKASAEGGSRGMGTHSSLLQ", "test": "PAC-1 binding assay, platelets stimulated with γ-thrombin", "assay_type": "cell-based", "conditions": "stimulation with 316 nM γ-thrombin; compound concentration not given", "from_the_text": "Gamma-thrombin is a proteolytic product of alpha-thrombin cleavage by a serine protease. Cleavage results in the disruption of exosite I which interacts directly with the hirudin-like domain of its primary substrates fibrinogen and protease-activated receptor 1 (PAR1). As a result, gamma-thrombin selectively cleaves PAR4 in the nanomolar range, leaving PAR1 intact. See Soslau, G., Class, R., Morgan, D. A., Foster, C., Lord, S. T., Marchese, P., and Ruggeri, Z. M. (2001) Unique pathway of thrombin-induced platelet aggregation mediated by glycoprotein Ib, The Journal of biological chemistry 276, 21173-21183. Gamma-thrombin (Enzyme Research Laboratories, South Bend, Ind.) is produced by trypsin-sepharose cleavage of alpha-thrombin. To neutralize alpha-thrombin contamination, stock solutions of gamma-thrombin are preincubated with 1 unit/mL hirudin prior 100 fold dilution into the sample for platelet stimulation. This concentration of hirudin is capable of abolishing alpha-thrombin activity with no effect on the activity of gamma-thrombin. See Soslau, G., Goldenberg, S. J., Class, R., and Jameson, B. (2004) Differential activation and inhibition of human platelet thrombin receptors by structurally distinct alpha-, beta- and gamma-thrombin, Platelets 15, 155-166. Single point screens and concentration response curves are conducted with 316 nanomolar or 100 nanomolar gamma-thrombin using PAC1 and CD61p binding.\n(§1) PAC-1 Binding assay: 60 μL of washed platelets (Tyrodes buffer containing 0.1% BSA) at a concentration of 0.15×10^8 platelets/mL were added to 5 mL round bottom polystyrene tubes (BD, Franklin Lakes, N.J.). FITC conjugated PAC-1 (BD Biosciences, San Jose, Calif.) antibody was diluted (to the manufacturers recommended concentration) in Tyrode's buffer containing 0.1% BSA. 40 μL of diluted antibody was added to the platelets and allowed to incubate for 5 minutes. Platelets were pre-treated with indicated concentrations of antagonist or DMSO control for 5 minutes followed by addition of PAR-1-AP (GL Biochem, Shanghai, China) or PAR-4-AP for 10 minutes. Platelet activity was quenched by the addition ice cold 1.5% paraformaldehyde followed by dilution in 1× phosphate buffered saline. The final DMSO concentration was 0.5%. Platelets were stored up to 18 hours at 4° C. before flow cytometric analysis. Analysis was carried out on a BD FACS Canto II (Franklin Lakes, N.J.). Fluorescent intensity was determined for 100,000 events within the platelet gate. Data was collected and analyzed via FACS DiVa software. Flow cytometric data analysis was conducted by the following method. The DMSO-vehicle treated control was subtracted from each data point. 100% response for PAR-4-AP was determined for each individual as the DMSO treated control stimulated with either 200 μM PAR-4-AP, or 20 μM PAR-1-AP. Data was plotted in GraphPad PRISM v.5.0. For compounds with a notable reduction in PAC-1 binding response, a dose response curves and subsequent IC50 values were generated using the inhibitory sigmoidal dose response ‘variable slope’ parameter. PAR-4 results were plotted as mean±SEM."}, "PAR4 [2]": {"target": "T1, PAR4", "test": "PAC-1 binding assay, washed platelets stimulated with PAR-4-AP (flow cytometry)", "assay_type": "cell-based", "conditions": "PAR-4-AP stimulation, dose response curve", "description": "as §1"}, "PAR4 [3]": {"target": "T2, PAR4 (Rattus norvegicus, UniProt Q920E0)", "T2 construct": "host or cells: rat, in vivo", "T2 sequence (Q920E0 17-395)": "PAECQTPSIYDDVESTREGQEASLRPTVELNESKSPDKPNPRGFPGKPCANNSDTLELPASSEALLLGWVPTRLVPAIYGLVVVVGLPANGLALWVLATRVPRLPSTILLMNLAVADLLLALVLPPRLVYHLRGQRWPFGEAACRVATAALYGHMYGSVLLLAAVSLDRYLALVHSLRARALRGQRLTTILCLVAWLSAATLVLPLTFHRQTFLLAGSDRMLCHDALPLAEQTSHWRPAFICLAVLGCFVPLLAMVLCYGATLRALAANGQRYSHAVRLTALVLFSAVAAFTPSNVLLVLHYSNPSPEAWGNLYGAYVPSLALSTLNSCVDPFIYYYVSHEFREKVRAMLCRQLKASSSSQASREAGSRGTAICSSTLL", "conditions": "rat hindpaw, carrageenan; cited from earlier work"}, "[4]": {"target": "T3, protease-activated receptor type 4 (PAR4) (Homo sapiens, UniProt Q96RI0)", "T3 construct": "host or cells: platelets", "T3 sequence (Q96RI0 18-385)": "T1 sequence (Q96RI0 18-385)", "conditions": "abstract of Lee et al. 2001; cited from earlier work"}, "PAR1 [5]": {"target": "T4, PAR1 (Homo sapiens, UniProt P25116)", "T4 construct": "host or cells: patients, in vivo", "T4 sequence (P25116 22-425)": "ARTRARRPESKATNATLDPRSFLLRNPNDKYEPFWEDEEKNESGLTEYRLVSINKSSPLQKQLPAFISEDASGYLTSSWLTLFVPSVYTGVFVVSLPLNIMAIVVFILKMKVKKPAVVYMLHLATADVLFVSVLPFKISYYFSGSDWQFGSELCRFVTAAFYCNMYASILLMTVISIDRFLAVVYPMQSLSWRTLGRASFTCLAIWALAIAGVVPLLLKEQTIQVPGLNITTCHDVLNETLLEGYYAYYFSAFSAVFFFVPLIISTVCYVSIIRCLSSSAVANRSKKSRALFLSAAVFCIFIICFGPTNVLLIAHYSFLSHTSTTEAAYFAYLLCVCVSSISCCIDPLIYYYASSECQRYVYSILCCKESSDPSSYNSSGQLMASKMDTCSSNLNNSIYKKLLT", "conditions": "cited from earlier work"}, "PAR1 [6]": {"target": "T4, PAR1", "conditions": "cited from earlier work", "remark": "listed apart in the source"}, "influenza viruses": {"system": "influenza viruses", "conditions": "mice treated with GPIIbIIIa antagonist; cited from earlier work"}, "PAR4 [7]": {"target": "T5, PAR4 (Mus musculus, UniProt O88634)", "T5 construct": "PAR4-AP, or Trypsin injected pleural cavities of mice; host or cells: mouse, in vivo", "T5 sequence (O88634 17-396)": "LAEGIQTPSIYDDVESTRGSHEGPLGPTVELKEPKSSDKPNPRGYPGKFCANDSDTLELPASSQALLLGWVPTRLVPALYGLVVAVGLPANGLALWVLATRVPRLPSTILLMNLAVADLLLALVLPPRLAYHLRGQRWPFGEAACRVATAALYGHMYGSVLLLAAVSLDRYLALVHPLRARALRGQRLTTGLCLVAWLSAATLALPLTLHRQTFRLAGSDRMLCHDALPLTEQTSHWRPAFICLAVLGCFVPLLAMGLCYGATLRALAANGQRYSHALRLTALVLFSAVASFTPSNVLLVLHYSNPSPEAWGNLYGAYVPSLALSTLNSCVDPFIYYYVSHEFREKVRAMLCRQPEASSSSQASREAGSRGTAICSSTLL", "conditions": "cited from earlier work"}, "PAR4 [8]": {"target": "T2, PAR4", "conditions": "rat myocardial ischemia/reperfusion; cited from earlier work"}, "[9]": {"conditions": "patients with myocardial infarction, added to standard anti-platelet therapy"}, "[10]": {"conditions": "patients with peripheral artery disease"}, "[11]": {"conditions": "patients with prior ischemic stroke, added to standard of care"}, "[12]": {"conditions": "non-ST-segment ACS patients undergoing CABG"}, "[13]": {"conditions": "non-ST-segment elevation ACS patients"}}, "note": "Bridge positions count the residues as written; N and C are the ends. Square brackets hold non-standard residues; d marks the D form. Ends that are not written are not given here. Peptide text beside a SMILES is read from it. * marks the point of attachment. Palmitoyl = CCCCCCCCCCCCCCCC(=O)*; hArg = N=C(N)NCCCC[C@H](N)C(=O)O; Mpa = O=C(O)CCS", "data": [{"compound": "COc1nn2cc(-c3cnn(-c4ccccc4)c3C)nc2s1", "note": "[Example B5]", "values": [{"measurement": "γ-thrombin % Max PAC-1 binding (316 nM)", "setting": "PAR4 [1]", "result": 95, "unit": "%"}, {"measurement": "IC50", "setting": "PAR4 [2]", "result": 1.53, "unit": "µM"}]}, {"compound": "COc1nn2cc(-c3c(-c4ccccc4)noc3C)nc2s1", "note": "[Example B4]", "values": [{"measurement": "γ-thrombin % Max PAC-1 binding (316 nM)", "setting": "PAR4 [1]", "result": 93, "unit": "%"}]}, {"compound": "COc1nn2cc(-c3nccs3)nc2s1", "note": "[Example B7]", "values": [{"measurement": "γ-thrombin % Max PAC-1 binding (316 nM)", "setting": "PAR4 [1]", "result": 98, "unit": "%"}]}, {"compound": "palmitoly-SGRRYGHALR (Palmitoyl-SGRRYGHALR) [palmitoylated peptide named beside P4pal-10 in the carrageenan model]", "values": [{"measurement": "edema and granulocyte recruitment", "setting": "PAR4 [3]", "result": "reduced edema and granulocyte recruitment"}]}, {"compound": "CCOC(=O)c1ccc(-c2nn(Cc3ccccc3)c3ccccc23)cc1", "values": [{"measurement": "inhibition of PAR4-dependent platelet activation", "setting": "[4]", "result": "selective and potent inhibitor"}]}, {"compound": "CCOC(=O)N[C@@H]1CC[C@@H]2[C@@H](C1)C[C@H]1C(=O)O[C@H](C)[C@H]1[C@H]2/C=C/c1ccc(-c2cccc(F)c2)cn1", "note": "[Vorapaxar]", "values": [{"measurement": "moderate to severe bleeding", "setting": "PAR1 [5]; [9]", "result": "significant increase"}, {"measurement": "risk of cardiovascular death or ischaemic events", "setting": "PAR1 [5]; [9]", "result": "reduced the risk"}, {"measurement": "limb ischemia and peripheral revascularization", "setting": "PAR1 [5]; [10]", "result": "significant beneficial effects"}, {"measurement": "risk of bleeding", "setting": "PAR1 [5]; [10]", "result": "increased risk of bleeding"}, {"measurement": "major vascular events", "setting": "PAR1 [5]; [11]", "result": "without improvement"}, {"measurement": "risk of intracranial hemorrhage", "setting": "PAR1 [5]; [11]", "result": "increased the risk"}, {"measurement": "ischemic events", "setting": "PAR1 [6]; [12]", "result": "significant reduction"}, {"measurement": "major CABG-related bleeding", "setting": "PAR1 [6]; [12]", "result": "no significant increase"}, {"measurement": "primary composite endpoint", "setting": "PAR1 [6]; [13]", "result": "did not significantly reduce"}, {"measurement": "risk of major bleeding, including intracranial hemorrhage", "setting": "PAR1 [6]; [13]", "result": "significant increase"}]}, {"compound": "COc1nn2cc(-c3ccc(-c4ccccc4)s3)nc2s1", "note": "[Example B8, 2-Methoxy-6-(5-phenylthiophen-2-yl)imidazo[2,1-b][1,3,4]thiadiazole]", "values": [{"measurement": "γ-thrombin % Max PAC-1 binding (316 nM)", "setting": "PAR4 [1]", "result": 78, "unit": "%"}, {"measurement": "IC50", "setting": "PAR4 [2]", "result": 0.00746, "unit": "µM"}]}, {"compound": "COc1nn2cc(-c3csc4ccccc34)nc2s1", "note": "[Example B3]", "values": [{"measurement": "γ-thrombin % Max PAC-1 binding (316 nM)", "setting": "PAR4 [1]", "result": 99, "unit": "%"}, {"measurement": "IC50", "setting": "PAR4 [2]", "result": 0.458, "unit": "µM"}]}, {"compound": "COc1nn2cc(-c3cc(-c4ccc(Cl)cc4)no3)nc2s1", "note": "[Example B2]", "values": [{"measurement": "γ-thrombin % Max PAC-1 binding (316 nM)", "setting": "PAR4 [1]", "result": 94, "unit": "%"}, {"measurement": "IC50", "setting": "PAR4 [2]", "result": 1.93, "unit": "µM"}]}, {"compound": "COc1nn2cc(-c3sc(-c4ccccc4)nc3C)nc2s1", "note": "[Example B6]", "values": [{"measurement": "γ-thrombin % Max PAC-1 binding (316 nM)", "setting": "PAR4 [1]", "result": 92, "unit": "%"}, {"measurement": "IC50", "setting": "PAR4 [2]", "result": 0.0698, "unit": "µM"}]}, {"compound": "COC(=O)c1[nH]c2ccc(OC(F)(F)F)cc2c1-c1cn2nc(OC)sc2n1", "note": "[Example B1, Methyl 3-(2-methoxyimidazo[2,1-b][1,3,4]thiadiazol-6-yl)-5-(trifluoromethoxy)-1H-indole-2-carboxylate]", "values": [{"measurement": "γ-thrombin % Max PAC-1 binding (316 nM)", "setting": "PAR4 [1]", "result": 100, "unit": "%"}, {"measurement": "IC50", "setting": "PAR4 [2]", "result": 2.11, "unit": "µM"}]}, {"compound": "N=C(N)NCCCC[C@@H]1NC(=O)CCSSC[C@@H](C(N)=O)NC(=O)[C@@H]2CCCN2C(=O)[C@H](Cc2c[nH]c3ccccc23)NC(=O)[C@H](CC(=O)O)NC(=O)CNC1=O", "note": "[eptifibatide] ([Mpa][hArg]GDWPC-NH2; disulfide 1-7)", "values": [{"measurement": "protection from death caused by influenza viruses", "setting": "influenza viruses", "result": "had the same effect"}]}, {"compound": "trans-cinnamoyl-YPGKF [tcY-NH2]", "values": [{"measurement": "neutrophil migration", "setting": "PAR4 [7]; CXCL8, carrageenan, PAR4-AP or Trypsin injected pleural cavities of mice", "result": "inhibit neutrophil migration"}, {"measurement": "eosinophil recruitment", "setting": "PAR4 [7]; after intrapleural injection of Eotaxin-1", "result": "blocks eosinophil recruitment"}, {"measurement": "infarct size", "setting": "PAR4 [8]", "result": "reduced infarct size"}]}]}
